Measured values from patent US8003660B2, “Modulators of muscarinic receptors” (Vertex Pharmaceuticals Incorporated, priority 2006, dated 2011).
pEC50: −log10 of the molar value.

Tests used:
Format in all cases: cell-based
[1] = target: T1, M1 muscarinic receptor (Homo sapiens, UniProt P11229); test: Functional mobilization of intracellular calcium (FLIPR) in CHO cells expressing M1; conditions: for pEC50: CHO cells expressing M1, FLIPR calcium; for Emax: CHO, 100% = maximum response obtained with the Carbachol control, read-out: M1 Efficacy
T1 construct: expressed in transfected cells; host or cells: CHO (M1-CHO)
T1 sequence (P11229 1-460): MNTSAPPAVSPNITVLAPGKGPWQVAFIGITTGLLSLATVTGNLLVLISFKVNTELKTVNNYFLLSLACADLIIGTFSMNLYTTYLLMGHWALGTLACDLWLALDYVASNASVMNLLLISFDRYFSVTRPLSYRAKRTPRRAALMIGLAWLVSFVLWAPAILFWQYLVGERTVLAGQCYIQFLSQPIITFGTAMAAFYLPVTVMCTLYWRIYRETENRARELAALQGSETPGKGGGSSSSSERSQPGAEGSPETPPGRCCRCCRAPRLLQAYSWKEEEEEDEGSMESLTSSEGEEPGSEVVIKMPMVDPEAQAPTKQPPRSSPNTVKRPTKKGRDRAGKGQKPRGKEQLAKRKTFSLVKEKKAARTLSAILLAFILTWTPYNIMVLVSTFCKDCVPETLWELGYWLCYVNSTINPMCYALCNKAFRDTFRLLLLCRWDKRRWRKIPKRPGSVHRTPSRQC
Method in brief: (§1)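 Recombinant CHO cells loaded with Fluo-3 AM or Calcium 3 dye in pH 7.4 buffer containing 1 mM probenecid, with 0.5% final DMSO. For agonism, compound is added directly. For inhibition, it is preincubated 15 min, or co-applied, before carbachol at EC80. FLIPR fluorescence (ex 488, em 540 nm) is recorded for 60 s.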

[2] = target: T2, M2 muscarinic receptor (Homo sapiens, UniProt P08172); test: Functional mobilization of intracellular calcium (FLIPR) in CHO cells expressing M2; conditions: for pEC50: CHO cells expressing M2, FLIPR calcium; for Emax: CHO, 100% = maximum response obtained with the Carbachol control, read-out: M2 Efficacy
T2 construct: expressed in transfected cells; host or cells: CHO (M2-CHO)
T2 sequence (P08172 1-466): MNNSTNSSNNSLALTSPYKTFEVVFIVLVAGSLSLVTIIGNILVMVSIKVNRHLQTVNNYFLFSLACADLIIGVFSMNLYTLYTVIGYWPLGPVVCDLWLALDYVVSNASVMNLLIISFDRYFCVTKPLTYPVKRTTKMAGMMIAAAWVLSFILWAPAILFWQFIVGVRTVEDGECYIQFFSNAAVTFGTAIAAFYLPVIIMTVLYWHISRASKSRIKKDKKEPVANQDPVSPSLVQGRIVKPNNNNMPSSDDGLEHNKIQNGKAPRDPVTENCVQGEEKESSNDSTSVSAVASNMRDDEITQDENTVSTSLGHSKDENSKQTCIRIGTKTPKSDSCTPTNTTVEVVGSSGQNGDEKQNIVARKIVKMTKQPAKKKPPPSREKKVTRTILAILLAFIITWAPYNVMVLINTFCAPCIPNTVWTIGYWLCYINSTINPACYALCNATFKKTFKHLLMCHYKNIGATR
Method in brief: as §1

[3] = target: T3, M3 muscarinic receptor (Homo sapiens, UniProt P20309); test: Functional mobilization of intracellular calcium (FLIPR) in CHO cells expressing M3; conditions: for pEC50: CHO cells expressing M3, FLIPR calcium; for Emax: CHO, 100% = maximum response obtained with the Carbachol control, read-out: M3 Efficacy
T3 construct: expressed in transfected cells; host or cells: CHO (M3-CHO)
Method in brief: as §1

[4] = target: T4, M4 muscarinic receptor (Homo sapiens, UniProt P08173); test: Functional mobilization of intracellular calcium (FLIPR) in CHO cells expressing M4; conditions: for pEC50: CHO cells expressing M4, FLIPR calcium; for Emax: CHO, 100% = maximum response obtained with the Carbachol control, read-out: M4 Efficacy
T4 construct: expressed in transfected cells; host or cells: CHO (M4-CHO)
T4 sequence (P08173 1-479): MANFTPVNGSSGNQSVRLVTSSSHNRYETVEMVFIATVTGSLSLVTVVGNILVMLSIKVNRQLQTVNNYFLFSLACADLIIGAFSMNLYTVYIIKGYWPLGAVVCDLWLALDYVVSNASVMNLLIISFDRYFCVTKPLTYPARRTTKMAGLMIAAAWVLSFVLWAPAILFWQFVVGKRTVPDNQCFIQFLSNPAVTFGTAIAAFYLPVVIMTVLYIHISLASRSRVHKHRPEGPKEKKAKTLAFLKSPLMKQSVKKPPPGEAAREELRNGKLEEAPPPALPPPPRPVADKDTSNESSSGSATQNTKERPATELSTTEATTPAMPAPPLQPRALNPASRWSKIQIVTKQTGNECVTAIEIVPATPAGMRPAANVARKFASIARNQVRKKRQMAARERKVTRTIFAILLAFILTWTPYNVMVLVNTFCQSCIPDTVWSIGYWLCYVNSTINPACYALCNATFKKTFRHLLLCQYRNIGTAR
Method in brief: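 Read-out: FLIPR fluorescence (ex 488, em 540 nm) over 60 s. Recombinant CHO lines are dye-loaded (Fluo-3 AM or Calcium 3) with 1 mM probenecid. For antagonist mode, compound is pre-incubated 15 min, or co-applied, then carbachol is added at 3× EC80 per subtype.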

T3 sequence (P20309 whole entry): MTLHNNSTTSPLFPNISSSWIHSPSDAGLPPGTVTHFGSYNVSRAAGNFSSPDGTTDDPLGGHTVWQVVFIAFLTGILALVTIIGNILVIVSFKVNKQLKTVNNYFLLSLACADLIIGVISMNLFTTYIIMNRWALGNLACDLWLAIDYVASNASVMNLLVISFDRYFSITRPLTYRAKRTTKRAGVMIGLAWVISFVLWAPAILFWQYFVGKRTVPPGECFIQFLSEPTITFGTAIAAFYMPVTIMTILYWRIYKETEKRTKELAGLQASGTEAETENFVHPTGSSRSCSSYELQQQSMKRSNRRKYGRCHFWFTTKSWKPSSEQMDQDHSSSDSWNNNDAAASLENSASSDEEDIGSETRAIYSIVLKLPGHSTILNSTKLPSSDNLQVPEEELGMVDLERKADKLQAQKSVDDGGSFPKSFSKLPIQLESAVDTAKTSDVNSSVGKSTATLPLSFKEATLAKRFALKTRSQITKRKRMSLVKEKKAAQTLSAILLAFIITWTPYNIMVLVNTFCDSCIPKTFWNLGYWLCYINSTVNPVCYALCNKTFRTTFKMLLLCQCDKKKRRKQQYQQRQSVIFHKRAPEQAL

Row | Compound | pEC50 [1] | Emax [1] | pEC50 [2] | Emax [2] | pEC50 [3] | Emax [3] | pEC50 [4] | Emax [4]
1 | CC(C)(C)CCN1CCC2(CC[C@@H](NC(=O)C3CCCO3)c3ccc(F)cc32)CC1 (some centres unmarked) [compound 133] | > 5.70 | 25 to 100% | > 5.70 | 25 to 100% | < 5.30 | < 25% | > 5.70 | 25 to 100%
2 | CC(C)(C)CCN1CCC2(CC[C@@H](NC(=O)Cc3cccnc3)c3ccccc32)CC1 [compound 134] | < 5.30 | < 25% | < 5.30 | < 25% | < 5.30 | < 25% | > 5.70 | 25 to 100%
3 | CC(C)(C)CCN1CCC2(CC[C@H](NC(=O)CC3CCOCC3)c3ccccc32)CC1 [compound 135] | > 5.70 | 25 to 100% | < 5.30 | < 25% | < 5.30 | < 25% | > 5.70 | 25 to 100%
4 | CCN(C(=O)Cc1cccnc1)[C@H]1CCC2(CCN(CCC(C)(C)C)CC2)c2ccccc21 [compound 136] | 5.30 to 5.70 | 25 to 100% | 5.30 to 5.70 | < 25% | < 5.30 | < 25% | > 5.70 | 25 to 100%
5 | C[C@@H](C(=O)N[C@H]1CCC2(CCN(CCC(C)(C)C)CC2)c2ccccc21)N1CCCC1=O [compound 137] | > 5.70 | 25 to 100% | < 5.30 | < 25% | < 5.30 | < 25% | > 5.70 | 25 to 100%
6 | CC(C)(C)CCN1CCC2(CC[C@H](NC(=O)CCN3CCCC3=O)c3ccc(F)cc32)CC1 [compound 138] | > 5.70 | 25 to 100% | > 5.70 | 25 to 100% | < 5.30 | < 25% | > 5.70 | 25 to 100%
7 | C[C@@H](O)CC(=O)N[C@@H]1CCC2(CCN(CCC(C)(C)C)CC2)c2ccccc21 [compound 139] | 5.30 to 5.70 | < 25% | < 5.30 | < 25% | < 5.30 | < 25% | > 5.70 | 25 to 100%
8 | CCOCC(=O)N(CC)[C@H]1CCC2(CCN(CCC(C)(C)C)CC2)c2ccccc21 [compound 140] | 5.30 to 5.70 | 25 to 100% | < 5.30 | < 25% | < 5.30 | < 25% | > 5.70 | 25 to 100%
9 | CC#CCN(C(C)=O)[C@H]1CCC2(CCN(CCC(C)C)CC2)c2ccccc21 [compound 141] | > 5.70 | 25 to 100% | < 5.30 | < 25% | < 5.30 | < 25% | > 5.70 | 25 to 100%
10 | CC(C)CCN1CCC2(CC[C@H](N3C(=O)CCC3=O)c3ccccc32)CC1 [compound 142] | 5.30 to 5.70 | 25 to 100% | < 5.30 | < 25% | < 5.30 | < 25% | < 5.30 | < 25%
11 | CC(=O)N1CCCC(C(=O)N[C@@H]2CCC3(CCN(CCC(C)(C)C)CC3)c3ccccc32)C1 (some centres unmarked) [compound 143] | 5.30 to 5.70 | 25 to 100% | < 5.30 | < 25% | < 5.30 | < 25% | > 5.70 | 25 to 100%
12 | CN1CC(C(=O)N[C@H]2CCC3(CCN(CCC(C)(C)C)CC3)c3ccccc32)CC1=O (some centres unmarked) [compound 144] | > 5.70 | 25 to 100% | > 5.70 | 25 to 100% | < 5.30 | < 25% | > 5.70 | 25 to 100%
13 | CC(C)(C)CCN1CCC2(CC[C@H](NC(=O)CC3CCOCC3)c3ccc(F)cc32)CC1 [compound 145] | > 5.70 | 25 to 100% | > 5.70 | < 25% | < 5.30 | < 25% | > 5.70 | 25 to 100%
14 | C[C@@H](C(=O)N[C@@H]1CCC2(CCN(CCC(C)(C)C)CC2)c2ccccc21)N1CCCC1=O [compound 146] | < 5.30 | 25 to 100% | < 5.30 | < 25% | < 5.30 | < 25% | > 5.70 | 25 to 100%
15 | COCCC(=O)N[C@H]1CCC2(CCN(CCC(C)(C)C)CC2)c2ccccc21 [compound 147] | > 5.70 | 25 to 100% | > 5.70 | 25 to 100% | < 5.30 | < 25% | > 5.70 | 25 to 100%
16 | CC(C)CCN1CCC2(CC[C@H](NC(=O)N(C)C)c3ccccc32)CC1 [compound 148] | < 5.30 | < 25% | < 5.30 | < 25% | < 5.30 | < 25% | 5.30 to 5.70 | 25 to 100%
17 | CC(=O)N1CCCC[C@@H]1C(=O)N[C@@H]1CCC2(CCN(CCC(C)(C)C)CC2)c2cc(F)ccc21 [compound 149] | 5.30 to 5.70 | 25 to 100% | 5.30 to 5.70 | 25 to 100% | < 5.30 | < 25% | > 5.70 | 25 to 100%
18 | CC(=O)N[C@H]1CCC2(CCN(CC=C(C)C)CC2)c2ccccc21 [compound 150] | < 5.30 | 25 to 100% | < 5.30 | < 25% | < 5.30 | < 25% | 5.30 to 5.70 | 25 to 100%
19 | Cc1cc(C(=O)N[C@H]2CCC3(CCN(CCC(C)(C)C)CC3)c3ccccc32)nn1C [compound 151] | > 5.70 | 25 to 100% | < 5.30 | < 25% | < 5.30 | < 25% | > 5.70 | 25 to 100%
20 | CC(C)(C)CCN1CCC2(CC[C@@H](NC(=O)CC3CCOCC3)c3ccccc32)CC1 [compound 152] | < 5.30 | < 25% | < 5.30 | < 25% | < 5.30 | < 25% | > 5.70 | 25 to 100%
21 | CC(=O)N(C(C)C)[C@H]1CCC2(CCN(CCC(C)(C)C)CC2)c2ccccc21 [compound 154] | > 5.70 | 25 to 100% | < 5.30 | < 25% | < 5.30 | < 25% | > 5.70 | 25 to 100%
22 | CCC(=O)N[C@H]1CCC2(CCN(CCC(C)(C)C)CC2)c2ccccc21 [compound 156] | > 5.70 | 25 to 100% | > 5.70 | 25 to 100% | < 5.30 | < 25% | > 5.70 | 25 to 100%
